As usually defined, the inhibition is the change of the read-out against control, counted positive when it falls. Usually IC50 stands for the concentration at which inhibition is half-maximal. High values mean lower potency, low ones higher potency.

Consider 10 compounds from patent publication US5861520A, “Glycolipid analogs” (Seikagaku Kogyo Kabushiki Kaisha (Seikagaku Corporation), priority 1994, dated 1999).

Common to all, as to format: biochemical
The target in experiment [1] is T1, β-glucocerebrosidase (Mus musculus, UniProt P17439).
T1 construct: mouse liver microsome as an enzyme source; from tissue; host or cells: mouse liver microsome
T1 sequence (P17439 20-515): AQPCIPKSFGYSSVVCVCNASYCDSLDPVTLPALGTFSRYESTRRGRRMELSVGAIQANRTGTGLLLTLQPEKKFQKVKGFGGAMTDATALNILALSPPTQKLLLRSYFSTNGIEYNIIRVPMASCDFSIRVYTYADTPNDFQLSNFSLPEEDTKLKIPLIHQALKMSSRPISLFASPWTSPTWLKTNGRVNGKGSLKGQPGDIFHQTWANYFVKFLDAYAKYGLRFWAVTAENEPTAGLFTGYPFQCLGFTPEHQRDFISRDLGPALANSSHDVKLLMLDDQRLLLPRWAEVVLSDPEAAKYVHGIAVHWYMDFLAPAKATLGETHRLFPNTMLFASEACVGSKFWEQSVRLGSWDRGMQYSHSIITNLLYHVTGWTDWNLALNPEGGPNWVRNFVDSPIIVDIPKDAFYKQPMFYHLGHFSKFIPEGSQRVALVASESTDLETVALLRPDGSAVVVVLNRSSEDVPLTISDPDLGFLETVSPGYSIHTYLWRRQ
Nature of the experiment: β-glucocerebrosidase inhibition with 4-methyl-umbelliferyl glucoside as substrate. Conditions: mouse liver microsome. On the procedure:
(§1) (2) The inhibitory effects of each of compounds 1E, 1Z, 2E and 2Z synthesized in Examples 1 to 4, the above-described compound C-1 and the following compounds C-5 and C-6 on β-glucocerebrosidase and β-galactocerebrosidase were determined by the following method. Namely, the same enzyme sources as employed in the above (1) were used, while 4-methyl-umbelliferyl glucoside was used as a substrate. The inhibition (%) and IC50 were determined in accordance with the method of Peter et al. [Clin. Chim. Acta, 60, 391-396 (1975)]. In each case, the substrate was used in a constant and large excess amount over the corresponding enzyme.
(Liver microsomes are vesicles of endoplasmic reticulum, rich in cytochrome P450 enzymes.)

Experiment [2] deals with β-galactocerebrosidase. In words: β-galactocerebrosidase inhibition, 4-methyl-umbelliferyl substrate. Particulars: mouse brain microsome, 4-methyl-umbelliferyl glucoside. On the procedure:
as §1

In experiment [3] the target is T1, β-glucocerebrosidase. In words: β-glucocerebrosidase inhibition with NBD-glucocerebroside (fluorescence-labeled natural substrate), mouse liver microsome. Conditions: for inhibition of β-glucocerebrosidase activity (in words) / inhibition at 10 µM: 10 μM; for inhibition at 10 µM / IC50: NBD-glucocerebroside, mouse liver microsome; for enhancement of β-glucocerebrosidase inhibition compared with C-1 and C-3 (in words): compared with saturated analogs C-1 and C-3. On the procedure:
(§2) Glycosidase inhibitory effects of glycolipid analogs (1) The inhibitory effects of each of compounds 1E, 1Z, 2E and 2Z synthesized in Examples 1 to 4 on β-glucocerebrosidase and β-galactocerebrosidase were determined by using fluorescence-labeled natural substrates, i.e., 12-[N-methyl-N-(7-nitro-2-oxa-1,3-diaxol-4-yl)]aminododecanoic acid (NBD)-glucocerebroside and NBD-galactocrebroside. Namely, the β-glucocerebrosidease activity was determined in accordance with the method of Granbowski et al. [Clin. Chim. Acta., […], 123-135 (1982)] with the use of mouse liver microsome as an enzyme source. On the other hand, the β-galactocerebrosidase activity was determined in accordance with the method of Raghavan et al. [Biochim. Biophys. Acta, 877, 1-8 (1986)] with the use of mouse brain microsome as an enzyme source. […] Each substrate was used in a constant and large excess amount over the corresponding enzyme. […] IC50 levels (the concentration necessary for inhibiting 50% of the enzyme activity) of compounds 1E and 1Z were 0.3 μM and 0.1 μM, respectively. […] The inhibition (%) was determined in accordance with the following formula. [formula]
(§3) Under the same conditions as employed above, further, the inhibitory effects of the following compound C-1 [in the formula (a), X=NH, sugar analog=glucose type] being similar to the glycolipid analogs of the present invention and the sugar analogs C-2 to C-4 represented by the following formula [synthesized by the method similar to in the synthesis of compound C-1] were examined and compared.

Experiment [4] concerns the target T2, β-galactocerebrosidase (Mus musculus, UniProt P54818).
T2 construct: mouse brain microsome as an enzyme source; from tissue; host or cells: mouse brain microsome
T2 sequence (P54818 43-684): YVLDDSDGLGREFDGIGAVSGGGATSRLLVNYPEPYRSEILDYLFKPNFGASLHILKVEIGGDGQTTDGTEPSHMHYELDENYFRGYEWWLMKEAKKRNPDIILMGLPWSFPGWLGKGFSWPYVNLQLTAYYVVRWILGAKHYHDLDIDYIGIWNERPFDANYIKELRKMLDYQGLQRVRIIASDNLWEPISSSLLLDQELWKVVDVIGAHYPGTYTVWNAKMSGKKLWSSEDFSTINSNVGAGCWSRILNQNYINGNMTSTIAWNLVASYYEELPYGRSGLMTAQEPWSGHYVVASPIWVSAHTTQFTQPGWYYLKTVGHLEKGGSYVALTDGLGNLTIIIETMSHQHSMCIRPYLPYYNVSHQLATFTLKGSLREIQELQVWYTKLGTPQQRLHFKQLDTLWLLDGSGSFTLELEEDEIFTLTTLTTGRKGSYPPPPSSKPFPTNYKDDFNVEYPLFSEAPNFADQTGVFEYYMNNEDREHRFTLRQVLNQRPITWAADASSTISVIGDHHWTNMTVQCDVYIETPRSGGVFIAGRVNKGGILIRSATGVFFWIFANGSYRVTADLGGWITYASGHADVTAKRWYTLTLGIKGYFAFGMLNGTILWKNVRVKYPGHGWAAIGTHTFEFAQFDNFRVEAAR
Nature of the experiment: β-galactocerebrosidase inhibition with NBD-galactocerebroside (fluorescence-labeled natural substrate), mouse brain microsome. Particulars: for inhibition at 10 µM / IC50: NBD-galactocerebroside, mouse brain microsome; for inhibition at 10 µM / inhibition of β-galactocerebrosidase activity (in words): 10 μM. On the procedure:
as §2, §3

“Also recorded” adds a separate entry of the source.

Consider `CCCCCCCCCCCCC/C=C/[C@@H](O)[C@H](CN[C@@H]1C=C(CO)[C@@H](O)[C@H](O)[C@H]1O)NC(=O)CCCCCCCCCCCCCCC` [Compound 1E, (2S,3R,4E)-1-[(5a-carba-β-D-xylo-hex-5-enopyranosyl)amino]-2-(hexadecanoylamino)-4-octadecen-3-ol], for which, on β-glucocerebrosidase [1], the inhibition at 40 µM is 97% and 0.58 µM corresponded to half-maximal inhibition (IC50). The “40 μM inhibition (%)” value in the experiment on β-galactocerebrosidase [2] was 1%. At β-glucocerebrosidase [3], the “inhibition of β-glucocerebrosidase activity (in words)” value is “strongly and specifically inhibited the β-glucocerebrosidase activity alone; also recorded: almost completely inhibited the β-glucocerebrosidase activity”; the inhibition at 10 µM turned out to be 95.2%; the IC50 was determined as 0.3 µM; the “enhancement of β-glucocerebrosidase inhibition compared with C-1 and C-3 (in words)” value was “extremely enhanced”. The inhibition at 10 µM at β-galactocerebrosidase [4] was found to be 0%.
`CCCCCCCCCCCCC/C=C\[C@@H](O)[C@H](CN[C@@H]1C=C(CO)[C@@H](O)[C@H](O)[C@H]1O)NC(=O)CCCCCCCCCCCCCCC` [Compound 1Z, (2S,3R,4Z)-1-[(5a-carba-β-D-xylo-hex-5-enopyranosyl)amino]-2-(hexadecanoylamino)-4-octadecen-3-ol]: on β-glucocerebrosidase [1], the inhibition at 40 µM came out at 99% and the IC50 is 0.44 µM. Besides, in the experiment on β-galactocerebrosidase [2], the “40 μM inhibition (%)” value was found to be 1%. Moreover, on β-glucocerebrosidase [3], the “inhibition of β-glucocerebrosidase activity (in words)” value is “strongly and specifically inhibited the β-glucocerebrosidase activity alone; also recorded: almost completely inhibited the β-glucocerebrosidase activity”; the inhibition at 10 µM was determined as 97.7%; inhibition was half-maximal at 0.1 µM (IC50); the “enhancement of β-glucocerebrosidase inhibition compared with C-1 and C-3 (in words)” value is reported as “extremely enhanced”. In addition, the inhibition at 10 µM against β-galactocerebrosidase [4] came to 0%.
For the compound `CCCCCCCCCCCCC/C=C/[C@@H](O)[C@H](CN[C@@H]1C=C(CO)[C@H](O)[C@H](O)[C@H]1O)NC(=O)CCCCCCCCCCCCCCC` [Compound 2E, (2S,3R,4E)-1-[(5a-carba-α-L-arabino-hex-5-enopyranosyl)amino]-2-(hexadecanoylamino)-4-octadecen-3-ol], the inhibition at 40 µM at β-glucocerebrosidase [1] came out at 31%. Besides, in the experiment with β-galactocerebrosidase [2], the “40 μM inhibition (%)” value is reported as 95% and 1.25 µM corresponded to half-maximal inhibition (IC50). For the same compound, at β-glucocerebrosidase [3], 10 µM produced 0% inhibition. Further, on β-galactocerebrosidase [4], the “inhibition of β-galactocerebrosidase activity (in words)” value was “strongly and specifically inhibited the β-galactocerebrosidase activity alone”; the inhibition at 10 µM was found to be 92.6%; the IC50 stood at 1.6 µM.
With `CCCCCCCCCCCCC/C=C\[C@@H](O)[C@H](CN[C@@H]1C=C(CO)[C@H](O)[C@H](O)[C@H]1O)NC(=O)CCCCCCCCCCCCCCC` [Compound 2Z, (2S,3R,4Z)-1-[(5a-carba-α-L-arabino-hex-5-enopyranosyl)amino]-2-(hexadecanoylamino)-4-octadecen-3-ol], the inhibition at 40 µM against β-glucocerebrosidase [1] was 43%. Besides, in the experiment on β-galactocerebrosidase [2], the “40 μM inhibition (%)” value is listed as 92% and the concentration for half-maximal inhibition (IC50) was 1.85 µM. For the same compound, the inhibition at 10 µM at β-glucocerebrosidase [3] amounted to 0%. On β-galactocerebrosidase [4], the “inhibition of β-galactocerebrosidase activity (in words)” value is “strongly and specifically inhibited the β-galactocerebrosidase activity alone”; testing at 10 µM gave an inhibition of 87.2%; half-maximal inhibition (IC50) required 2.3 µM.
Turning to `CCCCCCCCCCCCC/C=C/[C@@H](O)[C@H](CN[C@@H]1C[C@H](CO)[C@@H](O)[C@H](O)[C@H]1O)NC(=O)CCCCCCCCCCCCCCC` [Compound C-1, reference compound], the inhibition at 40 µM against β-glucocerebrosidase [1] is 56%. Further, the “40 μM inhibition (%)” value in the experiment on β-galactocerebrosidase [2] is 7%. Further, the inhibition at 10 µM against β-glucocerebrosidase [3] came out at 37.3%; on β-galactocerebrosidase [4], 0%.
Regarding `CCCCCCCCCCCCC/C=C/[C@@H](O)[C@H](CN[C@@H]1C[C@H](CO)[C@H](O)[C@H](O)[C@H]1O)NC(=O)CCCCCCCCCCCCCCC` [Compound C-2, reference compound], the inhibition at 10 µM against β-glucocerebrosidase [3] was 0%. Further, at β-galactocerebrosidase [4], the “inhibition of β-galactocerebrosidase activity (in words)” value is “slightly inhibited the β-galactocerebrosidase activity” and the inhibition at 10 µM came to 12.9%.
For `CCCCCCCCCCCCC/C=C\[C@@H](O)[C@H](CN[C@@H]1C[C@H](CO)[C@@H](O)[C@H](O)[C@H]1O)NC(=O)CCCCCCCCCCCCCCC` [Compound C-3, reference compound], the inhibition at 10 µM against β-glucocerebrosidase [3] was 64%; on β-galactocerebrosidase [4], 2.3%.
For `CCCCCCCCCCCCC/C=C\[C@@H](O)[C@H](CN[C@@H]1C[C@H](CO)[C@H](O)[C@H](O)[C@H]1O)NC(=O)CCCCCCCCCCCCCCC` [Compound C-4, reference compound], on β-glucocerebrosidase [3], the inhibition at 10 µM turned out to be 0%. Besides, on β-galactocerebrosidase [4], the “inhibition of β-galactocerebrosidase activity (in words)” value was “slightly inhibited the β-galactocerebrosidase activity” and 10 µM produced 15.4% inhibition.
On β-glucocerebrosidase [1], `CCCCCCCCCCCCC/C=C/[C@@H](O)[C@H](CO[C@@H]1C[C@H](CO)[C@@H](O)[C@H](O)[C@H]1O)NC(=O)CCCCCCCCCCCCCCC` [Compound C-5, reference compound] showed an inhibition at 40 µM of 0%. Further, the “40 μM inhibition (%)” value in the experiment with β-galactocerebrosidase [2] is given as 31%.
For `CCCCCCCCCCCCC/C=C/[C@@H](O)[C@H](CS[C@@H]1C[C@H](CO)[C@@H](O)[C@H](O)[C@H]1O)NC(=O)CCCCCCCCCCCCCCC` [Compound C-6, reference compound], in that order: 0% and 0%.
